The structures appear in SMILES notation.

In general, IC50 refers to the concentration that inhibits the measured activity by half. Higher therefore signals a need for much substance.

The first experiment deals with Human thrombin (Homo sapiens (Human), UniProt P00734). In words: Thrombin protease activity inhibition assay (chromogenic substrate S-2238). It counts as biochemical.
Conditions: not given
Here is the method:
The thrombin activity reported herein (e.g., Table A) was obtained as follows. […] Thrombin was assayed in buffer containing 0.05 M Tris (pH 7.4), 0.015 M NaCl and 0.01% PEG-8000. The final concentration of enzyme used was 3 nM thrombin. […] All assays were performed in 96-well microtiter plates at room temperature (RT). […] Inhibitor IC50 values were determined by adding test compound as ten point, three-fold serial dilutions in buffer solution, as known in the art. The plate was read at 10 minutes after substrate addition. The IC50 was calculated by plotting the percent (%) inhibition against compound concentration and fitting the data to a constrained four parameter sigmoidal curve, as known in the art.
For `Nc1cc(-c2ccc[nH]c2=O)n[nH]1` [Cmpd 1, 3-(5-amino-1H-pyrazol-3-yl)-1,2-dihydropyridin-2-one], the IC50 was greater than 100000 nM.

The experiment is the same for the next values; noted with them: 3 nM thrombin, 125 μM S-2238, 10 min pre-incubation, RT.
`O=C(c1ccoc1)n1nc(-c2cccn(Cc3ccncc3)c2=O)cc1NCc1ccc(Cl)s1` [Cmpd 6, 3-(5-[(5-chlorothiophen-2-yl)methyl]amino-1-[(furan-3-yl)carbonyl]-1H-pyrazol-3-yl)-1-(pyridin-4-ylmethyl)-1,2-dihydropyridin-2-one] returned an IC50 of less than 100 nM.
`CC(C)(C)C(=O)n1nc(-c2cccn(Cc3ccccc3Cl)c2=O)cc1NCc1ccc(Cl)s1` [Cmpd 27, 1-[(2-chlorophenyl)methyl]-3-(5-[(5-chlorothiophen-2-yl)methyl]amino-1-(2,2-dimethylpropanoyl)-1H-pyrazol-3-yl)-1,2-dihydropyridin-2-one]: the IC50 is less than 100 nM.
For the compound `COc1ccccc1C(=O)n1nc(-c2cccn(Cc3ccccc3Cl)c2=O)cc1NCc1ccc(Cl)s1` [Cmpd 28, 1-[(2-chlorophenyl)methyl]-3-(5-[(5-chlorothiophen-2-yl)methyl]amino-1-[(2-methoxyphenyl)carbonyl]-1H-pyrazol-3-yl)-1,2-dihydropyridin-2-one], the IC50 is less than 100 nM.
`O=C(c1ccoc1)n1nc(-c2cccn(Cc3ccccc3Cl)c2=O)cc1NCc1ccc(Cl)s1` [Cmpd 29, 1-[(2-chlorophenyl)methyl]-3-(5-[(5-chlorothiophen-2-yl)methyl]amino-1-[(furan-3-yl)carbonyl]-1H-pyrazol-3-yl)-1,2-dihydropyridin-2-one]: the half-maximal inhibitory concentration (IC50) was less than 100 nM.
With `O=c1c(-c2cc(NCc3ccc(Cl)s3)[nH]n2)cccn1Cc1ccccc1Cl` [Cmpd 30, 1-[(2-chlorophenyl)methyl]-3-(5-[(5-chlorothiophen-2-yl)methyl]amino-1H-pyrazol-3-yl)-1,2-dihydropyridin-2-one], the IC50 was in the range of 10000 to 100000 nM.
The compound `CC(C)(C)C(=O)n1nc(-c2cccn(Cc3cccc(Cl)c3)c2=O)cc1NCc1ccc(Cl)s1` [Cmpd 31, 1-[(3-chlorophenyl)methyl]-3-(5-[(5-chlorothiophen-2-yl)methyl]amino-1-(2,2-dimethylpropanoyl)-1H-pyrazol-3-yl)-1,2-dihydropyridin-2-one] returned an IC50 of less than 100 nM.
`COc1ccccc1C(=O)n1nc(-c2cccn(Cc3cccc(Cl)c3)c2=O)cc1NCc1ccc(Cl)s1` [Cmpd 32, 1-[(3-chlorophenyl)methyl]-3-(5-[(5-chlorothiophen-2-yl)methyl]amino-1-[(2-methoxyphenyl)carbonyl]-1H-pyrazol-3-yl)-1,2-dihydropyridin-2-one] came in with an IC50 of less than 100 nM.
Regarding `O=C(c1ccoc1)n1nc(-c2cccn(Cc3cccc(Cl)c3)c2=O)cc1NCc1ccc(Cl)s1` [Cmpd 33, 1-[(3-chlorophenyl)methyl]-3-(5-[(5-chlorothiophen-2-yl)methyl]amino-1-[(furan-3-yl)carbonyl]-1H-pyrazol-3-yl)-1,2-dihydropyridin-2-one], the half-inhibitory concentration (IC50) was less than 100 nM.
`O=c1c(-c2cc(NCc3ccc(Cl)s3)[nH]n2)cccn1Cc1cccc(Cl)c1` [Cmpd 34, 1-[(3-chlorophenyl)methyl]-3-(5-[(5-chlorothiophen-2-yl)methyl]amino-1H-pyrazol-3-yl)-1,2-dihydropyridin-2-one] gave an IC50 of 1000 to 10000 nM.
On to `CC(C)(C)C(=O)n1nc(-c2cccn(Cc3ccc(Cl)cc3)c2=O)cc1NCc1ccc(Cl)s1` [Cmpd 35, 1-[(4-chlorophenyl)methyl]-3-(5-[(5-chlorothiophen-2-yl)methyl]amino-1-(2,2-dimethylpropanoyl)-1H-pyrazol-3-yl)-1,2-dihydropyridin-2-one], for which the IC50 was less than 100 nM.
The compound `COc1ccccc1C(=O)n1nc(-c2cccn(Cc3ccc(Cl)cc3)c2=O)cc1NCc1ccc(Cl)s1` [Cmpd 36, 1-[(4-chlorophenyl)methyl]-3-(5-[(5-chlorothiophen-2-yl)methyl]amino-1-[(2-methoxyphenyl)carbonyl]-1H-pyrazol-3-yl)-1,2-dihydropyridin-2-one] came in with an IC50 of less than 100 nM.
Compound `O=C(c1ccoc1)n1nc(-c2cccn(Cc3ccc(Cl)cc3)c2=O)cc1NCc1ccc(Cl)s1` [Cmpd 37, 1-[(4-chlorophenyl)methyl]-3-(5-[(5-chlorothiophen-2-yl)methyl]amino-1-[(furan-3-yl)carbonyl]-1H-pyrazol-3-yl)-1,2-dihydropyridin-2-one] returned an IC50 of less than 100 nM.
`O=c1c(-c2cc(NCc3ccc(Cl)s3)[nH]n2)cccn1Cc1ccc(Cl)cc1` [Cmpd 38, 1-[(4-chlorophenyl)methyl]-3-(5-[(5-chlorothiophen-2-yl)methyl]amino-1H-pyrazol-3-yl)-1,2-dihydropyridin-2-one] returned an IC50 greater than 100000 nM.
The compound `CC(C)(C)C(=O)n1nc(-c2cccn(Cc3ccc(Cl)s3)c2=O)cc1NCc1ccc(Cl)s1` [Cmpd 39, 1-[(5-chlorothiophen-2-yl)methyl]-3-(5-[(5-chlorothiophen-2-yl)methyl]amino-1-(2,2-dimethylpropanoyl)-1H-pyrazol-3-yl)-1,2-dihydropyridin-2-one] gave an IC50 of less than 100 nM.
Regarding `COc1ccccc1C(=O)n1nc(-c2cccn(Cc3ccc(Cl)s3)c2=O)cc1NCc1ccc(Cl)s1` [Cmpd 40, 1-[(5-chlorothiophen-2-yl)methyl]-3-(5-[(5-chlorothiophen-2-yl)methyl]amino-1-[(2-methoxyphenyl)carbonyl]-1H-pyrazol-3-yl)-1,2-dihydropyridin-2-one], the IC50 is less than 100 nM.
As for `O=C(c1ccoc1)n1nc(-c2cccn(Cc3ccc(Cl)s3)c2=O)cc1NCc1ccc(Cl)s1` [Cmpd 41, 1-[(5-chlorothiophen-2-yl)methyl]-3-(5-[(5-chlorothiophen-2-yl)methyl]amino-1-[(furan-3-yl)carbonyl]-1H-pyrazol-3-yl)-1,2-dihydropyridin-2-one], the IC50 is less than 100 nM.
`O=c1c(-c2cc(NCc3ccc(Cl)s3)[nH]n2)cccn1Cc1ccc(Cl)s1` [Cmpd 42, 1-[(5-chlorothiophen-2-yl)methyl]-3-(5-[(5-chlorothiophen-2-yl)methyl]amino-1H-pyrazol-3-yl)-1,2-dihydropyridin-2-one]: the IC50 was greater than 100000 nM.
In turn, `CC(C)(C)C(=O)n1nc(-c2cccn(Cc3ccccc3)c2=O)cc1NCc1ccc(Cl)s1` [Cmpd 43, 1-benzyl-3-(5-[(5-chlorothiophen-2-yl)methyl]amino-1-(2,2-dimethylpropanoyl)-1H-pyrazol-3-yl)-1,2-dihydropyridin-2-one] gave an IC50 of less than 100 nM.
`COCC(C)(C)C(=O)n1nc(-c2cccn(Cc3ccccc3)c2=O)cc1NCc1ccc(Cl)s1` [Cmpd 44, 1-benzyl-3-(5-[(5-chlorothiophen-2-yl)methyl]amino-1-(3-methoxy-2,2-dimethylpropanoyl)-1H-pyrazol-3-yl)-1,2-dihydropyridin-2-one]: the IC50 is less than 100 nM.
Consider `O=C(c1cccc2c1OCCO2)n1nc(-c2cccn(Cc3ccccc3)c2=O)cc1NCc1ccc(Cl)s1` [Cmpd 45, 1-benzyl-3-(5-[(5-chlorothiophen-2-yl)methyl]amino-1-[(2,3-dihydro-1,4-benzodioxin-5-yl)carbonyl]-1H-pyrazol-3-yl)-1,2-dihydropyridin-2-one], for which the IC50 was less than 100 nM.
`COc1ccccc1C(=O)n1nc(-c2cccn(Cc3ccccc3)c2=O)cc1NCc1ccc(Cl)s1` [Cmpd 47, 1-benzyl-3-(5-[(5-chlorothiophen-2-yl)methyl]amino-1-[(2-methoxyphenyl)carbonyl]-1H-pyrazol-3-yl)-1,2-dihydropyridin-2-one] displayed an IC50 of less than 100 nM.
Same read-out and setting: with `O=c1c(-c2cc(NCc3ccc(Cl)s3)[nH]n2)cccn1Cc1ccccc1` [Cmpd 54, 1-benzyl-3-(5-[(5-chlorothiophen-2-yl)methyl]amino-1H-pyrazol-3-yl)-1,2-dihydropyridin-2-one] the figure was 1000 to 10000 nM.
As to `O=C(c1ccccc1Cl)n1nc(-c2cccn(Cc3ccccc3)c2=O)cc1NCc1ccc(Cl)s1` [Cmpd 55, 1-benzyl-3-1-[(2-chlorophenyl)carbonyl]-5-[(5-chlorothiophen-2-yl)methyl]amino-1H-pyrazol-3-yl-1,2-dihydropyridin-2-one], the IC50 was less than 100 nM.
Still for that read-out and setting: with `CC(C)(C)C(=O)n1nc(-c2cccn(CC#N)c2=O)cc1NCc1ccc(Cl)s1` [Cmpd 56, 2-[3-(5-[(5-chlorothiophen-2-yl)methyl]amino-1-(2,2-dimethylpropanoyl)-1H-pyrazol-3-yl)-2-oxo-1,2-dihydropyridin-1-yl]acetonitrile] the figure was less than 100 nM; with `COc1ccccc1C(=O)n1nc(-c2cccn(CC#N)c2=O)cc1NCc1ccc(Cl)s1` [Cmpd 57, 2-[3-(5-[(5-chlorothiophen-2-yl)methyl]amino-1-[(2-methoxyphenyl)carbonyl]-1H-pyrazol-3-yl)-2-oxo-1,2-dihydropyridin-1-yl]acetonitrile], less than 100 nM; with `N#CCn1cccc(-c2cc(NCc3ccc(Cl)s3)n(C(=O)c3ccoc3)n2)c1=O` [Cmpd 58, 2-[3-(5-[(5-chlorothiophen-2-yl)methyl]amino-1-[(furan-3-yl)carbonyl]-1H-pyrazol-3-yl)-2-oxo-1,2-dihydropyridin-1-yl]acetonitrile], less than 100 nM.
As for `N#CCn1cccc(-c2cc(NCc3ccc(Cl)s3)[nH]n2)c1=O` [Cmpd 60, 2-[3-(5-[(5-chlorothiophen-2-yl)methyl]amino-1H-pyrazol-3-yl)-2-oxo-1,2-dihydropyridin-1-yl]acetonitrile], the IC50 lay in the range of 10000 to 100000 nM.
For the compound `O=C(c1ccccc1)n1nc(-c2ccc[nH]c2=O)cc1NCc1ccc(Cl)s1` [Cmpd 61, 3-(1-benzoyl-5-[(5-chlorothiophen-2-yl)methyl]amino-1H-pyrazol-3-yl)-1,2-dihydropyridin-2-one], the IC50 was less than 100 nM.
With `O=C(c1ccccc1)n1nc(-c2cccn(Cc3ccco3)c2=O)cc1NCc1ccc(Cl)s1` [Cmpd 63, 3-(1-benzoyl-5-[(5-chlorothiophen-2-yl)methyl]amino-1H-pyrazol-3-yl)-1-(furan-2-ylmethyl)-1,2-dihydropyridin-2-one], the IC50 is less than 100 nM.

These data come from patent US9687479B2, “Multisubstituted aromatic compounds as serine protease inhibitors” (VERSEON CORPORATION, priority 2013, dated 2017).
